How the values were obtained:
Plasmopara viticola = test: whole plant or invertebrate; assay type: in vivo; details: foliar, read-out: disease control
Pythium ultimum = Pythium ultimum / liquid culture (seedling damping off); assay type: cell-based; details: Globisporangium ultimum; 200 ppm; potato dextrose broth, 24° C., 2-3 days after application; read-out: disease control (inhibition of growth determined photometrically)
[1] = test system: Glomerella lagenarium (Colletotrichum lagenarium); test: Glomerella lagenarium (Colletotrichum lagenarium) / liquid culture (anthracnose); assay type: cell-based; details: Colletotrichum orbiculare, PDB potato dextrose broth, 24° C., 3-4 days after application, read-out: disease control (inhibition of growth measured photometrically)
Description: 11. Glomerella lagenarium (Colletotrichum lagenarium)/Liquid Culture (Anthracnose): Conidia of the fungus from cryogenic storage were directly mixed into nutrient broth (PDB potato dextrose broth). After placing a DMSO solution of test compound into a 96-well microtiter plate at an application rate of 200 ppm, the nutrient broth containing the fungal spores was added. The test plates were incubated at 24° C. and the inhibition of growth was measured photometrically 3-4 days after application.

[2] = test system: Monographella nivalis (Microdochium nivale); test: Monographella nivalis (Microdochium nivale) / liquid culture (foot rot cereals); assay type: cell-based; details: PDB potato dextrose broth, 24° C., 4-5 days after application, read-out: disease control (inhibition of growth determined photometrically)
Gaeumannomyces graminis = Gaeumannomyces graminis / liquid culture (take-all of cereals); assay type: cell-based; details: PDB potato dextrose broth, 24° C., 4-5 days after application, read-out: disease control (inhibition of growth determined photometrically)
Description: (§1) 14. Gaeumannomyces graminis/Liquid Culture (Take-all of Cereals): Mycelial fragments of the fungus from cryogenic storage were directly mixed into nutrient broth (PDB potato dextrose broth). After placing a DMSO solution of test compound into a 96-well microtiter plate at an application rate of 200 ppm, the nutrient broth Cp.33, containing the fungal spores is added. The test plates were incubated at 24° C. and the inhibition of growth was determined photometrically 4-5 days after application.

[3] = test system: Thanatephorus cucumeris (Rhizoctonia solani); test: Thanatephorus cucumeris (Rhizoctonia solani) / liquid culture (foot rot, damping-off); assay type: cell-based; details: PDB potato dextrose broth, 24° C., 3-4 days after application, read-out: disease control (inhibition of growth determined photometrically)
Description: 17. Thanatephorus cucumeris (Rhizoctonia solani)/Liquid Culture (Foot Rot, Damping-Off): Mycelia fragments of a newly grown liquid culture of the fungus were directly mixed into nutrient broth (PDB potato dextrose broth). After placing a DMSO solution of the test compounds into a 96-well microtiter plate at an application rate of 200 ppm, the nutrient broth containing the fungal material was added. The test plates were incubated at 24° C. and the inhibition of growth was determined photometrically 3-4 days after application.

[4] = test system: Mycosphaerella arachidis (Cercospora arachidicola); test: Mycosphaerella arachidis (Cercospora arachidicola) / liquid culture (early leaf spot); assay type: cell-based; details: PDB potato dextrose broth, 24° C., 4-5 days after application, read-out: disease control (inhibition of growth determined photometrically)
Description: as §1, with “12. Mycosphaerella arachidis (Cercospora arachidicola)/Liquid” for “14. Gaeumannomyces graminis/Liquid”, “(Early Leaf Spot): Conidia” for “(Take-all of Cereals): Mycelial fragments”, “broth” for “broth Cp.33,”, “was” for “is”

[5] = test system: Mycosphaerella graminicola (Septoria tritici); test: Mycosphaerella graminicola (Septoria tritici) / liquid culture (Septoria blotch); assay type: cell-based; details: Zymoseptoria tritici, PDB potato dextrose broth, 24° C., 4-5 days after application, read-out: disease control (inhibition of growth determined photometrically)
Description: as §1, with “13. Mycosphaerella graminicola (Septoria tritici)/Liquid” for “14. Gaeumannomyces graminis/Liquid”, “(Septoria Blotch): Conidia” for “(Take-all of Cereals): Mycelial fragments”, “broth” for “broth Cp.33,”, “was” for “is”

COC(=O)C(OC(=O)c1cc2c(cc1Cl)COB2O)c1ccccc1 (centres unmarked) [Compound 223]
≥ 80%: pest or weed control at 200 ppm (Plasmopara viticola) | inhibition at 200 ppm (Pythium ultimum) | inhibition at 200 ppm [1] | inhibition at 200 ppm [2]

O=C(OCCC(F)(F)F)c1ccc2c(c1)B(O)OC2 [Compound 369]
≥ 80%: inhibition at 200 ppm (Pythium ultimum) | inhibition at 200 ppm [1] | inhibition at 200 ppm (Gaeumannomyces graminis) | inhibition at 200 ppm [2] | inhibition at 200 ppm [3]

CC(F)COC(=O)c1cc2c(cc1F)COB2O (centres unmarked) [Compound 396]
≥ 80%: pest or weed control at 200 ppm (Plasmopara viticola) | inhibition at 200 ppm (Pythium ultimum) | inhibition at 200 ppm [4] | inhibition at 200 ppm [2] | inhibition at 200 ppm [3]

O=C(OCCCCc1ccc2ccccc2c1)c1cc2c(cc1F)COB2O [Compound 415]
≥ 80%: inhibition at 200 ppm [4] | inhibition at 200 ppm (Gaeumannomyces graminis) | inhibition at 200 ppm [2] | inhibition at 200 ppm [3]

O=C(NCCOc1ccccc1)c1ccc2c(c1)B(O)OC2 [Compound 267]
≥ 80%: inhibition at 200 ppm (Pythium ultimum) | inhibition at 200 ppm [4]

Cc1ccccc1NC(=O)c1cc2c(cc1Cl)COB2O [Compound 112]
≥ 80%: inhibition at 200 ppm [1]

O=C(OCCF)c1cc2c(cc1F)COB2O [Compound 423]
≥ 80%: pest or weed control at 200 ppm (Plasmopara viticola) | inhibition at 200 ppm (Pythium ultimum) | inhibition at 200 ppm [4] | inhibition at 200 ppm [5] | inhibition at 200 ppm (Gaeumannomyces graminis) | inhibition at 200 ppm [2] | inhibition at 200 ppm [3]

O=C(OCc1ncc(C(F)(F)F)cc1Cl)c1ccc2c(c1)B(O)OC2 [Compound 347]
≥ 80%: inhibition at 200 ppm (Pythium ultimum) | inhibition at 200 ppm [4] | inhibition at 200 ppm (Gaeumannomyces graminis)

C#CC(CC)OC(=O)c1ccc2c(c1)B(O)OC2 (centres unmarked) [Compound 327]
≥ 80%: pest or weed control at 200 ppm (Plasmopara viticola) | inhibition at 200 ppm (Pythium ultimum) | inhibition at 200 ppm [1] | inhibition at 200 ppm (Gaeumannomyces graminis) | inhibition at 200 ppm [3]

COCCOC(=O)c1cc2c(cc1Cl)COB2O [Compound 224]
≥ 80%: inhibition at 200 ppm (Pythium ultimum) | inhibition at 200 ppm [1] | inhibition at 200 ppm (Gaeumannomyces graminis) | inhibition at 200 ppm [2]

COCCOCCOCCOC(=O)c1ccc2c(c1)B(O)OC2 [Compound 371]
≥ 80%: inhibition at 200 ppm (Pythium ultimum) | inhibition at 200 ppm [4]

O=C(OCCCF)c1ccc2c(c1)B(O)OC2 [Compound 330]
≥ 80%: pest or weed control at 200 ppm (Plasmopara viticola) | inhibition at 200 ppm (Pythium ultimum) | inhibition at 200 ppm [4] | inhibition at 200 ppm (Gaeumannomyces graminis) | inhibition at 200 ppm [2] | inhibition at 200 ppm [3]

O=C(OCc1ncc(C(F)(F)F)cc1Cl)c1cc2c(cc1F)COB2O [Compound 409]
≥ 80%: pest or weed control at 200 ppm (Plasmopara viticola) | inhibition at 200 ppm (Pythium ultimum) | inhibition at 200 ppm [1] | inhibition at 200 ppm (Gaeumannomyces graminis) | inhibition at 200 ppm [2] | inhibition at 200 ppm [3]

Cc1ccccc1NC(=O)c1ccc2c(c1)B(O)OC2 [Compound 280]
≥ 80%: inhibition at 200 ppm (Pythium ultimum) | inhibition at 200 ppm [1]

C[Si](C)(C)CCCOC(=O)c1cc2c(cc1F)COB2O [Compound 377]
≥ 80%: inhibition at 200 ppm (Pythium ultimum) | inhibition at 200 ppm [4] | inhibition at 200 ppm [5] | inhibition at 200 ppm (Gaeumannomyces graminis) | inhibition at 200 ppm [2] | inhibition at 200 ppm [3]

O=C(OCC(F)F)c1cc2c(cc1F)COB2O [Compound 427]
≥ 80%: inhibition at 200 ppm (Pythium ultimum) | inhibition at 200 ppm [1] | inhibition at 200 ppm [2] | inhibition at 200 ppm [3]

Cc1csc(NC(=O)c2ccc3c(c2)B(O)OC3)n1 [Compound 298]
≥ 80%: pest or weed control at 200 ppm (Plasmopara viticola) | inhibition at 200 ppm (Pythium ultimum) | inhibition at 200 ppm [4]

CC(=O)c1sc(NC(=O)c2ccc3c(c2)B(O)OC3)nc1C [Compound 302]
≥ 80%: inhibition at 200 ppm (Pythium ultimum) | inhibition at 200 ppm [4]

O=C(NCc1ccccc1)c1ccc2c(c1)B(O)OC2 [Compound 261]
≥ 80%: pest or weed control at 200 ppm (Plasmopara viticola) | inhibition at 200 ppm (Pythium ultimum) | inhibition at 200 ppm [4]

O=C(OCC1CCSCC1)c1ccc2c(c1)B(O)OC2 [Compound 319]
≥ 80%: inhibition at 200 ppm (Pythium ultimum) | inhibition at 200 ppm [4] | inhibition at 200 ppm [5] | inhibition at 200 ppm [2] | inhibition at 200 ppm [3]

CCCCSCCOC(=O)c1ccc2c(c1)B(O)OC2 [Compound 324]
≥ 80%: pest or weed control at 200 ppm (Plasmopara viticola) | inhibition at 200 ppm (Pythium ultimum) | inhibition at 200 ppm [4] | inhibition at 200 ppm [5] | inhibition at 200 ppm (Gaeumannomyces graminis) | inhibition at 200 ppm [2] | inhibition at 200 ppm [3]

O=C(OCCCCc1ccc2ccccc2c1)c1ccc2c(c1)B(O)OC2 [Compound 353]
≥ 80%: inhibition at 200 ppm [4] | inhibition at 200 ppm (Gaeumannomyces graminis)

O=C(OCc1ccc(C(F)(F)F)nc1)c1cc2c(cc1F)COB2O [Compound 405]
≥ 80%: inhibition at 200 ppm (Pythium ultimum) | inhibition at 200 ppm [4] | inhibition at 200 ppm [2] | inhibition at 200 ppm [3]

COc1ccc(CNC(=O)c2ccc3c(c2)B(O)OC3)cc1 [Compound 271]
≥ 80%: pest or weed control at 200 ppm (Plasmopara viticola) | inhibition at 200 ppm (Pythium ultimum) | inhibition at 200 ppm [4]

O=C(OC1CCOCC1)c1cc2c(cc1Cl)COB2O [Compound 237]
≥ 80%: inhibition at 200 ppm (Pythium ultimum) | inhibition at 200 ppm [1] | inhibition at 200 ppm [2]

O=C(OC(CF)CF)c1cc2c(cc1Cl)COB2O [Compound 189]
≥ 80%: inhibition at 200 ppm (Pythium ultimum) | inhibition at 200 ppm [1] | inhibition at 200 ppm (Gaeumannomyces graminis) | inhibition at 200 ppm [2]

O=C(OC1CCOCC1)c1ccc2c(c1)B(O)OC2 [Compound 366]
≥ 80%: pest or weed control at 200 ppm (Plasmopara viticola) | inhibition at 200 ppm (Pythium ultimum) | inhibition at 200 ppm [4] | inhibition at 200 ppm [3]

O=C(NCc1ccccc1)c1cc2c(cc1F)COB2O [Compound 104]
≥ 80%: inhibition at 200 ppm (Pythium ultimum) | inhibition at 200 ppm [4]

COCCOC(=O)c1ccc2c(c1)B(O)OC2 [Compound 350]
≥ 80%: inhibition at 200 ppm (Pythium ultimum) | inhibition at 200 ppm [4] | inhibition at 200 ppm [2] | inhibition at 200 ppm [3]

O=C(OCc1ccc(C(F)(F)F)cc1Cl)c1ccc2c(c1)B(O)OC2 [Compound 326]
≥ 80%: inhibition at 200 ppm [1] | inhibition at 200 ppm (Gaeumannomyces graminis) | inhibition at 200 ppm [2]

O=C(OCc1ccco1)c1cc2c(cc1F)COB2O [Compound 398]
≥ 80%: pest or weed control at 200 ppm (Plasmopara viticola) | inhibition at 200 ppm (Pythium ultimum) | inhibition at 200 ppm [4] | inhibition at 200 ppm [2] | inhibition at 200 ppm [3]

CC(=O)c1sc(NC(=O)c2cc3c(cc2Cl)COB3O)nc1C [Compound 158]
≥ 80%: inhibition at 200 ppm (Pythium ultimum) | inhibition at 200 ppm [1]

O=C(OCc1cccc2ccccc12)c1ccc2c(c1)B(O)OC2 [Compound 333]
≥ 80%: inhibition at 200 ppm (Pythium ultimum) | inhibition at 200 ppm [4] | inhibition at 200 ppm [5] | inhibition at 200 ppm [2]

C[Si](C)(C)/C=C/COC(=O)c1ccc2c(c1)B(O)OC2 [Compound 342]
≥ 80%: pest or weed control at 200 ppm (Plasmopara viticola) | inhibition at 200 ppm (Pythium ultimum) | inhibition at 200 ppm [4] | inhibition at 200 ppm [5] | inhibition at 200 ppm (Gaeumannomyces graminis) | inhibition at 200 ppm [2] | inhibition at 200 ppm [3]

O=C(OCc1ncc(C(F)(F)F)cc1Cl)c1cc2c(cc1Cl)COB2O [Compound 221]
≥ 80%: inhibition at 200 ppm (Pythium ultimum) | inhibition at 200 ppm [1] | inhibition at 200 ppm (Gaeumannomyces graminis) | inhibition at 200 ppm [2]

O=C(OC(CF)CF)c1ccc2c(c1)B(O)OC2 [Compound 311]
≥ 80%: pest or weed control at 200 ppm (Plasmopara viticola) | inhibition at 200 ppm (Pythium ultimum) | inhibition at 200 ppm [4] | inhibition at 200 ppm [2] | inhibition at 200 ppm [3]

O=C(OCC1CCCO1)c1ccc2c(c1)B(O)OC2 (centres unmarked) [Compound 337]
≥ 80%: pest or weed control at 200 ppm (Plasmopara viticola) | inhibition at 200 ppm (Pythium ultimum) | inhibition at 200 ppm [4] | inhibition at 200 ppm [2] | inhibition at 200 ppm [3]

CC(F)COC(=O)c1cc2c(cc1Cl)COB2O (centres unmarked) [Compound 209]
≥ 80%: inhibition at 200 ppm (Pythium ultimum) | inhibition at 200 ppm [1] | inhibition at 200 ppm (Gaeumannomyces graminis) | inhibition at 200 ppm [2] | inhibition at 200 ppm [3]
